One data set deals with human sperm. Kind of data set: Reduction of sperm motility (RSM) high-throughput phenotypic assay. Particulars: Homo sapiens, reduction of progressive sperm motility relative to control. The data set is classed as cell-based. In a few lines: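 Pooled human sperm from at least 3 normozoospermic donors were prepared by discontinuous density gradient centrifugation and incubated for 3 h at 37 °C under noncapacitating conditions. About 10,000 spermatozoa (20 μL) were dispensed into each well of 384-well plates holding compound. A Yokogawa CV7000 recorded time-lapse images, and Trackpy tracking measured progressive motility as a percentage of in-plate DMSO controls.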

Another data set has as its system HepG2 cells. Put plainly: HepG2 cytotoxicity assay (resazurin, 72 h). The settings on record: Homo sapiens, HepG2, 72 h; read-out: HepG2 pEC50 (converted). Format: cell-based, human. Summed up:
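HepG2 cells in MEM with glutamax and 10% FCS exposed to compounds for 72 h; resazurin (45 μM final) added for a further 4 h, fluorescence read at ex 528/em 590 nm. Data normalized to controls as % growth; pEC50 is the mean of duplicate curves.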
(The colour change of resazurin is a common sign of viable cells or microbes.)

A further data set can be described thus: Aqueous solubility. Format: physicochemical.
Where [1] appears, read: 10 min, 10 min incubation, reported <X (neg. log of top concentration) if largest reduction <70%, read-out: RSM pEC50 10 mins (converted).
Where [2] appears, read: 3 h incubation, reported <X if largest reduction <70%, read-out: RSM pEC50 3 hrs (converted).
Setting [3] is: 6 h incubation, reported <X if largest reduction <70%, read-out: RSM pEC50 6 hrs (converted).

≈ marks a conversion by molar mass, not a printed value. Read-outs that look alike come from different tables or passages of the source.

Regarding `Cc1cc(C)nc(-n2nc(C)cc2NC(=O)c2ccccc2)n1` [Compound 6d], the EC50 with human sperm (setting [1]) was over 31.6 µM; with human sperm (setting [2]) it was over 31.6 µM; in the data set with human sperm (setting [3]), over 31.6 µM; with HepG2 cells it was over 100 µM. Besides, the solubility – broadly, how much of the substance goes into solution per volume – in “Aqueous solubility” is 15 µM (≈ 4.61 µg/mL).

In the case of `Cc1cc(NC(=O)c2ccccc2)n(-c2ccccc2)n1` [Compound 6e], the EC50 with human sperm (setting [1]) was over 31.6 µM; in the data set on human sperm (setting [2]), over 31.6 µM; in the data set on human sperm (setting [3]), over 31.6 µM; with HepG2 cells, over 100 µM. The same compound displayed a solubility in “Aqueous solubility” of 240 µM (≈ 66.6 µg/mL).

Turning to `c1ccc(-c2cc(N3CCCCC3)c3ccccc3n2)nc1` [Compound 7a, 4-(Piperidin-1-yl)-2-(pyridin-2-yl)quinoline], the EC50 in the data set on human sperm (setting [1]) is over 25.1 µM; with human sperm (setting [2]), over 25.1 µM; in the data set with human sperm (setting [3]), 1.58 µM; in the data set on HepG2 cells it was over 100 µM. This compound also had a solubility in the data set “Aqueous solubility” of 10 µM (≈ 2.89 µg/mL).

Regarding `c1ccc(-c2cc(N3CCCCC3)c3ccccc3n2)cc1` [Compound 7b], the EC50 with human sperm (setting [1]) is over 31.6 µM; in the data set with human sperm (setting [2]), over 31.6 µM; in the data set with human sperm (setting [3]), over 31.6 µM; in the data set on HepG2 cells it was over 100 µM. In addition, the solubility in the data set “Aqueous solubility” turned out to be 0.6 µM (≈ 0.173 µg/mL).

Turning to `c1cncc(-c2cc(N3CCCCC3)c3ccccc3n2)c1` [Compound 7c], the EC50 is over 31.6 µM with human sperm (setting [1]), over 31.6 µM in the data set with human sperm (setting [2]), over 31.6 µM in the data set on human sperm (setting [3]) and over 100 µM in the data set on HepG2 cells. Besides, the solubility in the data set “Aqueous solubility” amounted to 57 µM (≈ 16.5 µg/mL).

As for `c1ccc2c(N3CCCCC3)cc(N3CCOCC3)nc2c1` [Compound 7d], the EC50 is over 31.6 µM with human sperm (setting [1]), over 31.6 µM in the data set on human sperm (setting [2]), over 31.6 µM in the data set on human sperm (setting [3]) and over 100 µM in the data set on HepG2 cells. In addition, the solubility in the data set “Aqueous solubility” stood at 140 µM (≈ 41.6 µg/mL).

Turning to `c1ccc2c(N3CCCCC3)cc(N3CCCCC3)nc2c1` [Compound 7e], the EC50 with human sperm (setting [1]) was over 31.6 µM; in the data set on human sperm (setting [2]), over 31.6 µM; with human sperm (setting [3]) it was over 31.6 µM; in the data set on HepG2 cells, over 100 µM. The solubility in “Aqueous solubility” is 8.1 µM (≈ 2.39 µg/mL).

Turning to `c1ccc2c(N3CCCCC3)cc(N3CCCC3)nc2c1` [Compound 7f], the EC50 in the data set with human sperm (setting [1]) was over 31.6 µM; in the data set with human sperm (setting [2]), over 31.6 µM; in the data set with human sperm (setting [3]), over 31.6 µM; in the data set on HepG2 cells it was 50.1 µM. This compound showed a solubility in the data set “Aqueous solubility” of 220 µM (≈ 61.9 µg/mL).

As for `CN1CCN(c2cc(N3CCCCC3)c3ccccc3n2)CC1` [Compound 7g], the EC50 was over 31.6 µM in the data set with human sperm (setting [1]), over 31.6 µM with human sperm (setting [2]), over 31.6 µM in the data set on human sperm (setting [3]) and 50.1 µM with HepG2 cells. The compound also registered a solubility in the data set “Aqueous solubility” of 210 µM (≈ 65.2 µg/mL).

For the origin of these results see paper PMC12771125, “Compounds Reducing Human Sperm Motility as Potential Nonhormonal Contraceptives Identified Using a High-Throughput Phenotypic Screening Platform” (ACS Omega, 2025).
